Experimental data: patent publication US12092575B2, “Measuring method of cell migration using the rate of cell invasion” (MBD Co., Ltd., priority 2021, dated 2024)

Experiments:
[1] = tested on: #1 HNSCC PDC; assay: Pillar-based spheroid invasion assay of #1 HNSCC PDC; type: cell-based, human; conditions: #1 HNSCC PDC spheroids, 80 μM of drugs, three days
[2] = tested on: A549 cell line; assay: Pillar-based spheroid invasion assay of A549 cell line
Experimental: Before using the pillar array, the pillar array and cell-encapsulation apparatus were immersed in 70% ethanol for 30 min for sterilization followed by complete drying at room temperature.

[3] = tested on: A549 cells; assay: Transwell invasion assay (Matrigel-coated membrane); type: cell-based; conditions: 1 μM docetaxel, 24 h, Matrigel-coated membrane (FIG. 6)
Experimental: In the present invention, transwell for conventional invasion assay was used. The membrane of the transwell was coated with 100 μl Matrigel (Corning, NY, USA) basement membrane matrix diluted 9-fold. A549 cells (2×10^4 cells/well) were seeded in the insert of the transwell with RPMI media without FBS. 500 μl RPMI media with FBS was filled in the wells to serve as a chemoattractant. After 24 h of cell incubation, migrated cells on the insert were fixed with 95% ethyl alcohol and then stained with 0.5% crystal violet.
Based on the fluorescence intensity, spheroid was identified, and invasive cells were calculated by subtracting the spheroid area from the total cell area. A549 cells formed a spheroid two days after cell aggregation and incubation. Cells surrounding spheroid migrated for an additional three days of culture. To check the invasiveness of A549 cells, the present inventors conducted invasion assay using Transwell (24-well transwell, Cat. No. 3422, Corning, USA) in no drug and 1 μM Docetaxel.

Compound	cell migration/invasion (spheroid morphology) [1]	cell invasion ([2]; A549 spheroids on pillar)	size of a single big spheroid (spheroid area) ([2]; A549 spheroids on pillar (FIG. 8))	total cell area, which means cell viability ([2]; A549 spheroids on pillar, as a function of docetaxel concentration (FIG. 7))	invasion ratio ([2]; A549 spheroids on pillar, docetaxel treated, control 52% (FIG. 9))	invasion of A549 in the Transwell [3]
N.N.[Cl][Pt][Cl] [cisplatin, Cisplatin]	effectively inhibited cell migration/invasion					
CN[C@@H]1C[C@H]2O[C@@](C)([C@@H]1OC)n1c3ccccc3c3c4c(c5c6ccccc6n2c5c31)C(=O)NC4 [staurosporine, Staurosporine]	effectively inhibited cell migration/invasion					
CC(=O)O[C@@]12CO[C@@H]1C[C@H](O)[C@@]1(C)C(=O)[C@H](O)C3=C(C)[C@@H](OC(=O)[C@H](O)[C@@H](NC(=O)OC(C)(C)C)c4ccccc4)C[C@@](O)([C@@H](OC(=O)c4ccccc4)[C@H]21)C3(C)C [docetaxel, Docetaxel]	effectively inhibited cell migration/invasion	inhibited cell invasion	reduced the size of a single big spheroid	decreased depending on docetaxel concentration	lower than 35%	inhibited the invasion
